# From ChEMBL document CHEMBL3885861, “Open TG-GATES”
# Species on record: Rattus norvegicus
# Test: Open TG-GATES - Regimen: Daily Repeat
# Format: toxicity, organism-based, Sprague-Dawley
# Parameters: regimen Daily Repeat, gender Male, age 6 weeks
# Conditions: in vivo, po, 0 mg/kg, route gavage, dose level Control; for APTT / Bas / Eos / Fbg / Hb / Ht / Lym / MCH / MCHC / MCV / Mono / Neu / PT / Plat / RBC / Ret / WBC: tissue Blood; for KIDNEY_L / KIDNEY_R / KIDNEY_TOTAL: tissue Kidney; for LIVER: tissue Liver; for A/G / ALP / ALT / AST / BUN / CRE / Ca / Cl / DBIL / GLC / IP / K / LDH / Na / PL / RALB / TBIL / TC / TG / TP / gamma-GTP: tissue Plasma
smiles,measurement,setting,value
CC[C@@H](CO)NCCN[C@@H](CC)CO [ETHAMBUTOL],TERMINAL_BW,"72 h, time 3 day",245.1 g
same,APTT,"72 h, time 3 day",21.9 s
same,Bas,"72 h, time 3 day",0%
same,Eos,"72 h, time 3 day",1%
same,Fbg,"72 h, time 3 day",308.2 mg/dL
same,Hb,"72 h, time 3 day",13.6 g/dL
same,Ht,"72 h, time 3 day",38.8%
same,Lym,"72 h, time 3 day",80.6%
same,MCH,"72 h, time 3 day",21.9 pg
same,MCHC,"72 h, time 3 day",34.9%
same,MCV,"72 h, time 3 day",62.6 fL
same,Mono,"72 h, time 3 day",3.2%
same,Neu,"72 h, time 3 day",13.8%
same,PT,"72 h, time 3 day",16.1 s
same,Plat,"72 h, time 3 day",127.2 x10_4/uL
same,RBC,"72 h, time 3 day",619.8 x10_4/ul
same,Ret,"72 h, time 3 day",6.5%
same,WBC,"72 h, time 3 day",109.6 x10_2/uL
same,KIDNEY_L,"72 h, time 3 day",1.1 g
same,KIDNEY_R,"72 h, time 3 day",1.1 g
same,KIDNEY_TOTAL,"72 h, time 3 day",2.2 g
same,LIVER,"72 h, time 3 day",11.5 g
same,A/G,"72 h, time 3 day",1.1
same,ALP,"72 h, time 3 day",1450 IU/L
same,ALT,"72 h, time 3 day",45.4 IU/L
same,AST,"72 h, time 3 day",68.6 IU/L
same,BUN,"72 h, time 3 day",19.2 mg/dL
same,CRE,"72 h, time 3 day",0.2 mg/dL
same,Ca,"72 h, time 3 day",10.9 mg/dL
same,Cl,"72 h, time 3 day",107 meq/L
same,DBIL,"72 h, time 3 day",0 mg/dL
same,GLC,"72 h, time 3 day",194.6 mg/dL
same,IP,"72 h, time 3 day",7.6 mg/dL
same,K,"72 h, time 3 day",4.4 meq/L
same,LDH,"72 h, time 3 day",172.4 IU/L
same,Na,"72 h, time 3 day",140.2 meq/L
same,PL,"72 h, time 3 day",155.6 mg/dL
same,RALB,"72 h, time 3 day",3 g/dL
same,TBIL,"72 h, time 3 day",0.004 mg/dL
same,TC,"72 h, time 3 day",78.4 mg/dL
same,TG,"72 h, time 3 day",123.2 mg/dL
same,TP,"72 h, time 3 day",5.7 g/dL
same,gamma-GTP,"72 h, time 3 day",1.4 IU/L
same,TERMINAL_BW,"[…], time 7 day",267.6 g
same,TERMINAL_BW,"[…], time 14 day",330.7 g
same,TERMINAL_BW,"[…], time 28 day",391.8 g
same,APTT,"[…], time 7 day",23.2 s
same,Bas,"[…], time 7 day",0%
same,Eos,"[…], time 7 day",1%
same,Fbg,"[…], time 7 day",338.4 mg/dL
same,Hb,"[…], time 7 day",14.1 g/dL
same,Ht,"[…], time 7 day",41.1%
same,Lym,"[…], time 7 day",83%
same,MCH,"[…], time 7 day",21.1 pg
same,MCHC,"[…], time 7 day",34.3%
same,MCV,"[…], time 7 day",61.4 fL
same,Mono,"[…], time 7 day",2.2%
same,Neu,"[…], time 7 day",12.8%
same,PT,"[…], time 7 day",15.4 s
same,Plat,"[…], time 7 day",110.1 x10_4/uL
same,RBC,"[…], time 7 day",671 x10_4/ul
same,Ret,"[…], time 7 day",5.1%
same,WBC,"[…], time 7 day",113 x10_2/uL
same,APTT,"[…], time 14 day",21.6 s
same,Bas,"[…], time 14 day",0%
same,Eos,"[…], time 14 day",0.8%
same,Fbg,"[…], time 14 day",321.6 mg/dL
same,Hb,"[…], time 14 day",14.4 g/dL
same,Ht,"[…], time 14 day",42.1%
same,Lym,"[…], time 14 day",80%
same,MCH,"[…], time 14 day",20.5 pg
same,MCHC,"[…], time 14 day",34.2%
same,MCV,"[…], time 14 day",60.1 fL
same,Mono,"[…], time 14 day",2.4%
same,Neu,"[…], time 14 day",15%
same,PT,"[…], time 14 day",16.3 s
same,Plat,"[…], time 14 day",103.5 x10_4/uL
same,RBC,"[…], time 14 day",701.6 x10_4/ul
same,Ret,"[…], time 14 day",4.4%
same,WBC,"[…], time 14 day",116.4 x10_2/uL
same,APTT,"[…], time 28 day",26.2 s
same,Bas,"[…], time 28 day",0%
same,Eos,"[…], time 28 day",1.2%
same,Fbg,"[…], time 28 day",315.8 mg/dL
same,Hb,"[…], time 28 day",14.7 g/dL
same,Ht,"[…], time 28 day",42.6%
same,Lym,"[…], time 28 day",83.4%
same,MCH,"[…], time 28 day",19.3 pg
same,MCHC,"[…], time 28 day",34.4%
same,MCV,"[…], time 28 day",56 fL
same,Mono,"[…], time 28 day",2.6%
same,Neu,"[…], time 28 day",11.4%
same,PT,"[…], time 28 day",15.6 s
same,Plat,"[…], time 28 day",106 x10_4/uL
same,RBC,"[…], time 28 day",761.2 x10_4/ul
same,Ret,"[…], time 28 day",3.1%
same,WBC,"[…], time 28 day",131.5 x10_2/uL
same,KIDNEY_L,"[…], time 7 day",1.1 g
same,KIDNEY_R,"[…], time 7 day",1.1 g
same,KIDNEY_TOTAL,"[…], time 7 day",2.2 g
same,KIDNEY_L,"[…], time 14 day",1.3 g
same,KIDNEY_R,"[…], time 14 day",1.3 g
same,KIDNEY_TOTAL,"[…], time 14 day",2.6 g
same,KIDNEY_L,"[…], time 28 day",1.4 g
same,KIDNEY_R,"[…], time 28 day",1.4 g
same,KIDNEY_TOTAL,"[…], time 28 day",2.8 g
same,LIVER,"[…], time 7 day",12.3 g
same,LIVER,"[…], time 14 day",14.5 g
same,LIVER,"[…], time 28 day",16.5 g
same,A/G,"[…], time 7 day",1.1
same,ALP,"[…], time 7 day",1523.4 IU/L
same,ALT,"[…], time 7 day",43 IU/L
same,AST,"[…], time 7 day",69.6 IU/L
same,BUN,"[…], time 7 day",17.8 mg/dL
same,CRE,"[…], time 7 day",0.2 mg/dL
same,Ca,"[…], time 7 day",10.5 mg/dL
same,Cl,"[…], time 7 day",106.8 meq/L
same,DBIL,"[…], time 7 day",0 mg/dL
same,GLC,"[…], time 7 day",198 mg/dL
same,IP,"[…], time 7 day",7.3 mg/dL
same,K,"[…], time 7 day",4.1 meq/L
same,LDH,"[…], time 7 day",200.2 IU/L
same,Na,"[…], time 7 day",142.2 meq/L
same,PL,"[…], time 7 day",147.6 mg/dL
same,RALB,"[…], time 7 day",3 g/dL
same,TBIL,"[…], time 7 day",0.006 mg/dL
same,TC,"[…], time 7 day",75.4 mg/dL
same,TG,"[…], time 7 day",91.6 mg/dL
same,TP,"[…], time 7 day",5.6 g/dL
same,gamma-GTP,"[…], time 7 day",1.8 IU/L
same,A/G,"[…], time 14 day",1.2
same,ALP,"[…], time 14 day",1341.2 IU/L
same,ALT,"[…], time 14 day",41 IU/L
same,AST,"[…], time 14 day",72.6 IU/L
same,BUN,"[…], time 14 day",19.6 mg/dL
same,CRE,"[…], time 14 day",0.2 mg/dL
same,Ca,"[…], time 14 day",10.5 mg/dL
same,Cl,"[…], time 14 day",106.4 meq/L
same,DBIL,"[…], time 14 day",0 mg/dL
same,GLC,"[…], time 14 day",196.6 mg/dL
same,IP,"[…], time 14 day",7.2 mg/dL
same,K,"[…], time 14 day",4 meq/L
same,LDH,"[…], time 14 day",191.2 IU/L
same,Na,"[…], time 14 day",141.6 meq/L
same,PL,"[…], time 14 day",139.6 mg/dL
same,RALB,"[…], time 14 day",3 g/dL
same,TBIL,"[…], time 14 day",0 mg/dL
same,TC,"[…], time 14 day",64.2 mg/dL
same,TG,"[…], time 14 day",116.4 mg/dL
same,TP,"[…], time 14 day",5.7 g/dL
same,gamma-GTP,"[…], time 14 day",1.6 IU/L
same,A/G,"[…], time 28 day",1
same,ALP,"[…], time 28 day",977.2 IU/L
same,ALT,"[…], time 28 day",41 IU/L
same,AST,"[…], time 28 day",67 IU/L
same,BUN,"[…], time 28 day",19.4 mg/dL
same,CRE,"[…], time 28 day",0.3 mg/dL
same,Ca,"[…], time 28 day",10.3 mg/dL
same,Cl,"[…], time 28 day",105.8 meq/L
same,DBIL,"[…], time 28 day",0 mg/dL
same,GLC,"[…], time 28 day",208 mg/dL
same,IP,"[…], time 28 day",6.8 mg/dL
same,K,"[…], time 28 day",4.1 meq/L
same,LDH,"[…], time 28 day",156 IU/L
same,Na,"[…], time 28 day",142.2 meq/L
same,PL,"[…], time 28 day",143.6 mg/dL
same,RALB,"[…], time 28 day",3.1 g/dL
same,TBIL,"[…], time 28 day",0.008 mg/dL
same,TC,"[…], time 28 day",72.8 mg/dL
same,TG,"[…], time 28 day",100.8 mg/dL
same,TP,"[…], time 28 day",6.2 g/dL
same,gamma-GTP,"[…], time 28 day",2.4 IU/L
